In patent US12251459B2, “Compositions, formulations, and methods for hair treatment” (Oddity Labs, LLC, priority 2022, dated 2025):

How the values were obtained:
[1] = test system: human hair follicle dermal papilla cells (hFDPC); assay: Human follicle dermal papilla cells (hFDPC) proliferation assay; format: cell-based; settings: hFDPCs supplemented with BIO, BMP-2 and FGFβ
Text: In Table 8, A represents less than 20% of increased proliferation of hFDPCs, B represents 20-40%, and C represents larger than 40% of increased proliferation of hFDPCs.

[2] = test system: TK.6 lymphoblasts; assay: TK.6 micronucleus assay; format: cell-based
Protocol: (§1) The safety/toxicology profiles of a compound or salt of the present disclosure was evaluated via a series of in vitro genotoxicity assays, including the SOS-chromotest to determine bacterial genotoxicity, and the TK.6 micronucleus assay to determine chromosomal damage and forward mutations. Standard reactive oxygen species (ROS) and caspase 3/7 assay were conducted to determine general cellular toxicity. Moreover, a series of sensitization tests were conducted to predict any potential skin sensitivity. These include the direct peptide reactivity assay to evaluate haptenization, the KeratinoSens reporter assay to determine potential sensitivity via the activation of a cytoprotective pathway, and an immunological assay using human immature monocyte-derived dendritic cells to evaluate any potential immunogenicity.
TK.6 lymphoblasts are a well-studied cell line commonly used for gene mutation analyses. They are heterozygous for the thymidine kinase gene (TK) and enable the detection of forward mutations and chromosomal damage, which manifests as micronuclei and are detectable via flow cytometry.
TK.6 cells were dosed with the example compounds or a vehicle control (0.1% v/v DMSO) and cultured with or without S9 metabolic activation for 24 hr. […] Methyl methanesulfonate, a known genotoxic, alkylating agent was used as a positive control for micronuclei detection.
The micronucleus assay was also performed to determine if the compounds are genotoxic by evaluating the presence of micronuclei. […] In combination. […] I-17 elicited genotoxicity at >3.125 μg/mL.

[3] = test system: bacteria; assay: SOS chromotest (bacteria-based genotoxicity test, β-galactosidase activity); format: cell-based; settings: varying concentrations; 4-NQ as known genotoxin
Protocol: The SOS chromotest is a well-established bacteria-based test for genotoxicity.
as §1

[4] = test system: HepG2 cells; assay: Caspase 3/7 activity in HepG2 cells; format: cell-based; settings: HepG2, >2-log concentration range, versus % v/v-matched DMSO
Protocol: Cells were treated with either the example compounds or vehicle control containing correspondingly % v/v-matched amounts of DMSO spanning a >2-log concentration range. Data represents mean±s.d. and representative of at least 2 experimental replicates.
HepG2 cells are an immortalized liver cell line commonly used to study apoptosis induced by small molecules. Cells were treated with either the example compounds or vehicle control containing correspondingly % v/v-matched amounts of DMSO spanning a >2-log concentration range. Data represents mean±s.d. and representative of at least 2 experimental replicates.

[5] = test system: Nrf2-ARE pathway; assay: KeratinoSens Nrf2-ARE reporter assay (ARE-luciferase); format: cell-based; settings: cinnamic aldehyde as known sensitizing compound
Protocol: as §1
The Nrf2-ARE pathway is a master regulator of cytoprotective responses to oxidative stress, and is an early indicator of skin sensitization. Nrf2 (nuclear factor erythroid 2-related factor) is a transcription factor that binds to antioxidant responsive elements (ARE). By fusing ARE to the light-producing luciferase gene, a KeratinoSens Nrf2-ARE reporter assay was performed whereby luciferase signal is directly correlated to Nrf2-ARE pathway activation. Normalized ARE-luciferase activity was measured using a known sensitizing compound (cinnamic aldehyde) and example compounds.

[6] = Clinical consumer perception study; format: in vivo, human
Protocol: The clinical test was performed by Eurofins|CRL, Inc. The test followed established, standardized procedures for clinical testing designed to ensure the well-being of clinical study subjects and the generation of reliable study data. Subjects were female and ranged in age from 27-65 years. Subjects used a simple, water-based formula containing an example compound, VII-3 (at 0.02% v/v) every 2 days in the morning or night on dry or towel-dried hair. Approximately 2 mL was applied directly to the hairline. No randomization was required for the study and subjects were blinded to the name of the test material.
Photographs of subjects' hair were taken 6 weeks after the treatment with the representative compounds (FIG. 6). Subjects were female and ranged in age from 27-65 years. Subjects used a simple, water-based formula containing an example compound VII-3 (at 0.02% v/v) every 2 days in the morning or night on dry or towel-dried hair. Approximately 2 mL was applied directly to the hairline. No randomization was required for the study and subjects were blinded to the name of the test material. FIG. 6. highlights specific regions of the included participants' scalps, juxtaposing pictures taken before and after the study. Based on clinical surveys, 97% of women reported an improvement in their hair's appearance while 82% reported increased hair growth and thickness.
After the conclusion of the study, subjects completed a Consumer perception questionnaire. Table 24 includes percentages of each response for the corresponding prompt in the questionnaire. The specific response choice is specified within the parentheses below the percentage.

[7] = test system: Human follicle papilla cells; assay: Functional stability: follicle papilla cell proliferation after pH and temperature pre-treatment of the compound; format: cell-based; settings: prepared in DMSO, DMI or 1:1 DMI/ethanol, diluted in pH-adjusted water, varying temperatures, 7 days; cells dosed 5 μg/mL, 48 hr
Protocol: Compound VII-3 was prepared in various solvents (DMSO; dimethyl sulfoxide, DMI; dimethyl isosorbide, or a 1:1 mixture of dimethyl isosorbide and ethanol), the diluted in pH-adjusted water and left at varying temperatures for 7 days. Human follicle papilla cells were dosed at 5 μg/mL with the example compound and further supplemented with 6-bromoindirubin-39-Oxime (BIO), recombinant bone morphogenetic protein-2 (BMP-2), and basic fibroblast growth factor (FGFβ), whose combination was previously found to preserve in vivo dermal papilla gene signatures. Normalized proliferation follicle papilla cell proliferation was analyzed after 48 hr following the treatment with the example compound pre-treated across a range of pH conditions (FIG. 7A) and temperature conditions (FIG. 7B). Data represents mean±s.d. and representative of n=2 donors.

[8] = test system: follicle dermal papilla cells; assay: Reactive oxygen species (ROS) activity in follicle dermal papilla cells; format: cell-based; settings: 5 μg/mL, 24 hr, relative to vehicle control (0.1% v/v DMSO)
Protocol: Normalized reactive oxygen species (ROS) activity in follicle dermal papilla cells were analyzed after treatment with 5 μg/mL example compounds relative to vehicle control (0.1% v/v DMSO) after 24 hr. The increase in ROS levels is harmful to cell homeostasis, structures, and functions and results in oxidative stress.

[9] = response: I haven't noticed a change

SMILES: CCC(=O)N1CCN(c2nnc(-c3ccc(C)cc3)c3ccccc23)CC1 [II-4, 1-Propanone, 1-[4-[4-(4-methylphenyl)-1-phthalazinyl]-1-piperazinyl]-]
- Percent Increase Proliferation of hFDPCs (%) [1]: B (B represents 20-40%)
- micronuclei formation / genotoxic effect in TK.6 cells [2]: do not promote any micronuclei formation
- genotoxic effects in SOS chromotest (normalized β-galactosidase activity) [3]: did not exhibit any genotoxic effects
- Normalized caspase 3/7 activity [4]: did not exhibit any caspase activation

SMILES: C=CCc1cc(/C=C2\C(=O)NC(=S)N(c3ccc(OC)cc3)C2=O)cc(OC)c1O [I-17]
- Percent Increase Proliferation of hFDPCs (%) [1]: C (C represents larger than 40% of increased proliferation of hFDPCs)
- concentration at which genotoxicity was elicited in TK.6 micronuclei assay ([2]; 24 hr): > 3125 ng/mL
- Normalized caspase 3/7 activity [4]: significant caspase-3/7 activation at the highest concentration

SMILES: COC(=O)c1c(S(C)(=O)=O)[nH]c(-c2ccccc2)nc1=O [VII-1, 5- Pyrimidinecarboxylic acid, 1,4-dihydro-6-(methylsulfonyl)-4-oxo-2-phenyl-, methyl ester]
- Percent Increase Proliferation of hFDPCs (%) [1]: C (C represents larger than 40% of increased proliferation of hFDPCs)
- micronuclei formation / genotoxic effect in TK.6 cells [2]: do not promote any micronuclei formation
- genotoxic effects in SOS chromotest (normalized β-galactosidase activity) [3]: did not exhibit any genotoxic effects
- Normalized caspase 3/7 activity [4]: did not exhibit any caspase activation
- sensitizing potential (normalized ARE-luciferase activity) [5]: exhibited sensitizing potential

SMILES: CSc1nc(-c2ccco2)nn1S(C)(=O)=O [VII-3, 1H-1,2,4-Triazole, 3-(2-furanyl)-1-(methylsulfonyl)-5-(methylthio)-]
- Percent Increase Proliferation of hFDPCs (%) [1]: B (B represents 20-40%)
- genotoxic effects in SOS chromotest (normalized β-galactosidase activity) [3]: did not exhibit any genotoxic effects
- Normalized caspase 3/7 activity [4]: did not exhibit any caspase activation
- Since the beginning of the study, I have noticed a decrease of the number of hairs lost in the shower. ([6]; response: Agree): 53.1%
- Since the start of the study, I can see more hair in the areas where the serum was applied. ([6]; response: Agree): 53.1%
- Since the beginning of the study, I have noticed a decrease of the number of hairs lost in the shower. ([6]; response: Disagree): 6.3%
- Since the start of the study, I can see more hair in the areas where the serum was applied. ([6]; response: Disagree): 3.1%
- Because of the treatment I have received since the start of the study, the appearance of my hair is: ([6]; response: Fuller): 56.3%
- Since the beginning of the study, I have noticed a decrease of the number of hairs lost in the shower. [6, 9]: 21.9%
- Since the start of the study, I can see more hair in the areas where the serum was applied. [6, 9]: 31.3%
- Since the start of the study, how effective do you think the treatment has been in increasing your hair growth/thickness? ([6]; response: Not effective at all): 0%
- Since the start of the study, how effective do you think the treatment has been in slowing down your hair loss? ([6]; response: Not effective at all): 3.1%
- Since the start of the study, how effective do you think the treatment has been in increasing your hair growth/thickness? ([6]; response: Not very effective): 18.8%
- Since the start of the study, how effective do you think the treatment has been in slowing down your hair loss? ([6]; response: Not very effective): 15.6%
- Since the start of the study, how effective do you think the treatment has been in increasing your hair growth/thickness? ([6]; response: Somewhat effective): 71.9%
- Since the start of the study, how effective do you think the treatment has been in slowing down your hair loss? ([6]; response: Somewhat effective): 53.1%
- Because of the treatment I have received since the start of the study, the appearance of my hair is: ([6]; response: Stronger): 21.9%
- Since the beginning of the study, I have noticed a decrease of the number of hairs lost in the shower. ([6]; response: Strongly Agree): 18.8%
- Since the start of the study, I can see more hair in the areas where the serum was applied. ([6]; response: Strongly Agree): 12.5%
- Since the beginning of the study, I have noticed a decrease of the number of hairs lost in the shower. ([6]; response: Strongly Disagree): 0%
- Since the start of the study, I can see more hair in the areas where the serum was applied. ([6]; response: Strongly Disagree): 0%
- Because of the treatment I have received since the start of the study, the appearance of my hair is: ([6]; response: Thicker): 18.8%
- Because of the treatment I have received since the start of the study, the appearance of my hair is: ([6]; response: Thinner): 3.1%
- Since the start of the study, how effective do you think the treatment has been in increasing your hair growth/thickness? ([6]; response: Very effective): 9.4%
- Since the start of the study, how effective do you think the treatment has been in slowing down your hair loss? ([6]; response: Very effective): 28.1%
- Because of the treatment I have received since the start of the study, the appearance of my hair is: ([6]; response: Weaker): 0%
- Subjects with tight hairstyles who noticed less shedding ([6]; water-based formula 0.02% v/v every 2 days, 6 weeks, 32 female subjects): 28/32 (87%)
- Adverse effects ([6]; water-based formula 0.02% v/v every 2 days, 6 weeks, 32 subjects completed): 0/32 (0%)
- functional stability (normalized follicle papilla cell proliferation after pre-treatment of the compound) [7]: functionally stable across physiologically-relevant pH and temperature ranges

SMILES: COc1ccc(CCCc2nc3ccccc3[nH]2)cc1 [VII-14, 1H-Benzimidazole, 2-[3-(4-methoxyphenyl)propyl]-]
- Percent Increase Proliferation of hFDPCs (%) [1]: A (A represents less than 20% of increased proliferation of hFDPCs)
- micronuclei formation / genotoxic effect in TK.6 cells [2]: do not promote any micronuclei formation
- Normalized caspase 3/7 activity [4]: did not exhibit any caspase activation

SMILES: C=CCc1cc(/C=C2\C(=O)NC(=S)N(c3ccccc3OC)C2=O)cc(OCC)c1O [I-18]
- Percent Increase Proliferation of hFDPCs (%) [1]: B (B represents 20-40%)
- Normalized reactive oxygen species (ROS) activity [8]: higher than other compounds
